Source: patent publication US9266892B2, “Fused pyrazoles as FGFR inhibitors” (Incyte Corporation, priority 2012, dated 2016)

Legend:
Format in all cases: biochemical
[1] = target: T1, FGFR1 (Homo sapiens, UniProt P11362); assay: FGFR Enzymatic Assay (FRET peptide phosphorylation), FGFR1; conditions: FGFR1 0.02 nM, ATP 210 μM
T1 construct: purchased Millipore or Invitrogen
Description: (§1) The inhibitor potency of the Example compounds was measured in an enzyme assay that measures peptide phosphorylation using FRET measurements to detect product formation. Inhibitors were serially diluted in DMSO and a volume of 0.5 μL was transferred to the wells of a 384-well plate. For FGFR3, a 10 μL volume of FGFR3 enzyme (Millipore) diluted in assay buffer (50 mM HEPES, 10 mM MgCl2, 1 mM EGTA, 0.01% Tween-20, 5 mM DTT, pH 7.5) was added to the plate and pre-incubated for 5-10 minutes. Appropriate controls (enzyme blank and enzyme with no inhibitor) were included on the plate. The assay was initiated by the addition of a 10 μL solution containing biotinylated EQEDEPEGDYFEWLE peptide substrate (SEQ ID NO: 1) and ATP (final concentrations of 500 nM and 140 μM respectively) in assay buffer to the wells. The plate was incubated at 25° C. for 1 hr. The reactions were ended with the addition of 10 μL/well of quench solution (50 mM Tris, 150 mM NaCl, 0.5 mg/mL BSA, pH˜7.8, 30 mM EDTA with Perkin Elmer Lance Detection Reagents at 3.75 nM Eu-antibody PY20 and 180 nM APC-Streptavidin). The plate was allowed to equilibrate for 1 hour before scanning the wells on a PheraStar plate reader (BMG Labtech). The enzymes were purchased from Millipore or Invitrogen.
(§2) FGFR1 and FGFR2 were measured under equivalent conditions with the following changes in enzyme and ATP concentrations: FGFR1, 0.02 nM and 210 μM, respectively and FGFR2, 0.01 nM and 100 μM, respectively.
(§3) GraphPad prism3 was used to analyze the data. The IC50 values were derived by fitting the data to the equation for a sigmoidal dose-response with a variable slope. Y=Bottom+(Top−Bottom)/(1+10^((Log IC50−X)*HillSlope)) where X is the logarithm of concentration and Y is the response.

[2] = target: T2, FGFR2 (Homo sapiens, UniProt P21802); assay: FGFR Enzymatic Assay (FRET peptide phosphorylation), FGFR2; conditions: FGFR2 0.01 nM, ATP 100 μM
T2 construct: purchased Millipore or Invitrogen
T2 sequence (P21802 22-821): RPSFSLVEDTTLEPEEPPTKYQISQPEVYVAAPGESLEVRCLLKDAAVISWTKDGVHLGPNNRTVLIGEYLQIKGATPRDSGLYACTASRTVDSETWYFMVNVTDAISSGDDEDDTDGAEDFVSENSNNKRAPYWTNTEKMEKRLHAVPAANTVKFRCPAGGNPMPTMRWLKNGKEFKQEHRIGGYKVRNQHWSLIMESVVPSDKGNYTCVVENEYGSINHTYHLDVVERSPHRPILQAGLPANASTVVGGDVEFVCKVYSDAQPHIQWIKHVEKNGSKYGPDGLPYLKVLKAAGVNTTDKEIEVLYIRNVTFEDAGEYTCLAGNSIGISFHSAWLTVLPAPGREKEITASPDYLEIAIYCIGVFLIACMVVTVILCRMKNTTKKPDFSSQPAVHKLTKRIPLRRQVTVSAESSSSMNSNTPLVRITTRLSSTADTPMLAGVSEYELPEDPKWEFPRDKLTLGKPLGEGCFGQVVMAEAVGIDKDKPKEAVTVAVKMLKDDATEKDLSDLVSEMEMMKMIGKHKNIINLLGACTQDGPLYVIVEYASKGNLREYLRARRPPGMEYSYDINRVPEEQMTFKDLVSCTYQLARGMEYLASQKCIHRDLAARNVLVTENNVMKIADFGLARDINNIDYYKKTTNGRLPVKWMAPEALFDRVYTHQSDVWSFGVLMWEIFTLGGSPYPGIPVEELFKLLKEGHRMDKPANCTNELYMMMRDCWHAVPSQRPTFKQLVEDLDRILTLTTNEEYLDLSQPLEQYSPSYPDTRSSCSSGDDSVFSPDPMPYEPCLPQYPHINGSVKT
Description: as §1, §2, §3

[3] = target: T3, FGFR3 (Homo sapiens, UniProt P22607); assay: FGFR Enzymatic Assay (FRET peptide phosphorylation), FGFR3; conditions: ATP 140 μM, 25° C. for 1 hr
T3 construct: purchased Millipore
T3 sequence (P22607 23-806): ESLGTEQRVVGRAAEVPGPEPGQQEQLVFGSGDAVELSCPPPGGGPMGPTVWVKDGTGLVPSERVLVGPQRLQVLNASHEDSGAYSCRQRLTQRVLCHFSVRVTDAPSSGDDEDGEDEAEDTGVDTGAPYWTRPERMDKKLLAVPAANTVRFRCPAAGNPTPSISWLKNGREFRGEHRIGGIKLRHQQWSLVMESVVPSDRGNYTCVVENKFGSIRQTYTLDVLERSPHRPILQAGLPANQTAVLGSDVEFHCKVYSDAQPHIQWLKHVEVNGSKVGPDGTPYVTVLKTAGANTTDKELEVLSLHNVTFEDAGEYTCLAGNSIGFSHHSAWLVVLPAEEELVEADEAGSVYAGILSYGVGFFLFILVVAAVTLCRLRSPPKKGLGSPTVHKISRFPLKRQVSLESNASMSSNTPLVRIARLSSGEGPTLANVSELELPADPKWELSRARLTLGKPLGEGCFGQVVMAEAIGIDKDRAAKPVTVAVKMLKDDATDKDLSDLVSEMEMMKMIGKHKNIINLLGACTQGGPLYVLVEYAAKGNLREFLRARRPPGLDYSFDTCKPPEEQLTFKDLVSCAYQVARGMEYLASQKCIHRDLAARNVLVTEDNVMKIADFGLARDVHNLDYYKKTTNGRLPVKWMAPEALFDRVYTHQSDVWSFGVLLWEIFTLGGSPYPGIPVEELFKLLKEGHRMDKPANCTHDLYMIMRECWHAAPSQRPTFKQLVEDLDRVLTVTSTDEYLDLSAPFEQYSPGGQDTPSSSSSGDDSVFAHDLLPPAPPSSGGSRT
Description: as §1, §3

T1 sequence (P11362 22-822): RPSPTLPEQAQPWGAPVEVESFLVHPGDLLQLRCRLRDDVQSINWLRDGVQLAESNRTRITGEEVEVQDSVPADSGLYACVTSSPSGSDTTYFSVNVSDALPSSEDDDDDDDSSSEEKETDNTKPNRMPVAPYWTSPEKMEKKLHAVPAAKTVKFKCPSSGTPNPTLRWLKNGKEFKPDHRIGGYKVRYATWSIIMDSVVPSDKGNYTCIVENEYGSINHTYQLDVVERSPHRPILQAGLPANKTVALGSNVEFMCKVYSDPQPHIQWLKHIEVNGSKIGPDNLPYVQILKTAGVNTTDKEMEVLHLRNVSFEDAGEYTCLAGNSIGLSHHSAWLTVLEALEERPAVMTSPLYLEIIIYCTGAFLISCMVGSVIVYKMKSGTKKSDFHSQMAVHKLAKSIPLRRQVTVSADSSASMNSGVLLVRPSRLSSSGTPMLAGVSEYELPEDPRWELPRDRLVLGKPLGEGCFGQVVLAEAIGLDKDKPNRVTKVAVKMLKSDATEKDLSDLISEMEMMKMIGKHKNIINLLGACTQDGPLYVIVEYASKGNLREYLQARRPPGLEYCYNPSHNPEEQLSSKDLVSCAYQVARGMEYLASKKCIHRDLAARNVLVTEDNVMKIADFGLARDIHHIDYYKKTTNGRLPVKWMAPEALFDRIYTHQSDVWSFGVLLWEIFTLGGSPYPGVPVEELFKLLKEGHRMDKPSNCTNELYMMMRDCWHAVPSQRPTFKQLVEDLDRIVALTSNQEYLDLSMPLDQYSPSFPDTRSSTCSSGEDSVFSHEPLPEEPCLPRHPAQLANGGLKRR

Row | Structure (SMILES) | IC50 [1] | IC50 [2] | IC50 [3]
1 | COc1cc(OC)c(Cl)c(-c2cnc3c(-c4cnn(CCCO)c4)n[nH]c3c2)c1Cl [Example 71, 3-{4-[6-(2,6-Dichloro-3,5-dimethoxyphenyl)-1H-pyrazolo[4,3-b]pyridin-3-yl]-1H-pyrazol-1-yl}propan-1-ol] | < 100 nM | < 100 nM | < 100 nM
2 | COc1cc(OC)c(Cl)c(-c2cc3[nH]nc(-c4cnn(CC(=O)N5CCOCC5)c4)c3cn2)c1Cl [Example 40, 6-(2,6-Dichloro-3,5-dimethoxyphenyl)-3-[1-(2-morpholin-4-yl-2-oxoethyl)-1H-pyrazol-4-yl]-1H-pyrazolo[4,3-c]pyridine] | < 100 nM | < 100 nM | < 100 nM
3 | COc1cc(OC)c(Cl)c(-c2cnc3c(-c4cnn(C)c4)n[nH]c3c2)c1Cl [Example 70, 6-(2,6-dichloro-3,5-dimethoxyphenyl)-3-(1-methyl-1H-pyrazol-4-yl)-1H-pyrazolo[4,3-b]pyridine] | < 100 nM | < 100 nM | < 100 nM
4 | COc1cc(OC)c(F)c(-c2cc3[nH]nc(-c4ccc5c(c4)CN(CC(C)O)C5=O)c3cn2)c1F (stereo not drawn) [Example 64, 5-[6-(2,6-Difluoro-3,5-dimethoxyphenyl)-1H-pyrazolo[4,3-c]pyridin-3-yl]-2-(2-hydroxypropyl)isoindolin-1-one] | < 100 nM | < 100 nM | < 100 nM
5 | COc1cc(OC)c(Cl)c(-c2cc3[nH]nc(-c4ccc(C(O)C(=O)N(C)C)c(F)c4)c3cn2)c1Cl (stereo not drawn) [Example 34, 2-{4-[6-(2,6-Dichloro-3,5-dimethoxyphenyl)-1H-pyrazolo[4,3-c]pyridin-3-yl]-2-fluorophenyl}-2-hydroxy-N,N-dimethylacetamide] | < 100 nM | < 100 nM | < 100 nM
6 | CCN1Cc2cc(-c3n[nH]c4cc(-c5c(F)c(OC)cc(OC)c5F)ncc34)cnc2C1=O [Example 55, 3-[6-(2,6-Difluoro-3,5-dimethoxyphenyl)-1H-pyrazolo[4,3-c]pyridin-3-yl]-6-ethyl-5,6-dihydro-7H-pyrrolo[3,4-b]pyridin-7-one] | < 100 nM | < 100 nM | < 100 nM
7 | COc1cc(OC)c(Cl)c(-c2cc3[nH]nc(-c4cnn(CC(=O)N5CCC(OC)C5)c4)c3cn2)c1Cl (stereo not drawn) [Example 45, 6-(2,6-Dichloro-3,5-dimethoxyphenyl)-3-{1-[2-(3-methoxypyrrolidin-1-yl)-2-oxoethyl]-1H-pyrazol-4-yl}-1H-pyrazolo[4,3-c]pyridine] | < 100 nM | < 100 nM | < 100 nM
8 | COc1cc(OC)c(F)c(-c2ncc3c(-c4ccc(N5CCN(C)CC5)nc4)n[nH]c3n2)c1F [Example 18, 6-(2,6-Difluoro-3,5-dimethoxyphenyl)-3-[6-(4-methylpiperazin-1-yl)pyridin-3-yl]-1H-pyrazolo[3,4-d]pyrimidine] | < 100 nM | < 100 nM | < 100 nM
9 | COc1cc(OC)c(F)c(-c2ncc3c(-c4cnn(C(C)C#N)c4)n[nH]c3n2)c1F (stereo not drawn) [Example 76, 2-{4-[6-(2,6-Difluoro-3,5-dimethoxyphenyl)-1H-pyrazolo[3,4-d]pyrimidin-3-yl]-1H-pyrazol-1-yl}propanenitrile] | < 100 nM | < 100 nM | < 100 nM
10 | COc1cc(OC)c(F)c(-c2ccc3c(-c4cnn(C)c4)n[nH]c3n2)c1F [Example 72, 6-(2,6-Difluoro-3,5-dimethoxyphenyl)-3-(1-methyl-1H-pyrazol-4-yl)-1H-pyrazolo[3,4-b]pyridine] | < 100 nM | < 100 nM | < 100 nM
11 | COc1cc(OC)c(F)c(-c2cc3[nH]nc(-c4ccc5c(c4)CC(C(=O)N4CCN(C)CC4)O5)c3cn2)c1F (stereo not drawn) [Example 24, 6-(2,6-Difluoro-3,5-dimethoxyphenyl)-3-{2-[(4-methylpiperazin-1-yl)carbonyl]-2,3-dihydro-1-benzofuran-5-yl}-1H-pyrazolo[4,3-c]pyridine] | < 100 nM | < 100 nM | < 100 nM

The next lines start with the values.

Row | IC50 [1] | IC50 [2] | IC50 [3] | Structure (SMILES)
12 | < 100 nM | < 100 nM | < 100 nM | COc1cc(OC)c(F)c(-c2ncc3c(-c4ccc5c(c4)CCN(S(C)(=O)=O)C5)n[nH]c3n2)c1F [Example 13, 6-[6-(2,6-Difluoro-3,5-dimethoxyphenyl)-1H-pyrazolo[3,4-d]pyrimidin-3-yl]-2-(methylsulfonyl)-1,2,3,4-tetrahydroisoquinoline]
13 | < 100 nM | < 100 nM | < 100 nM | COc1cc(OC)c(F)c(-c2ncc3c(-c4ccc5c(c4)CC(C(=O)N(C)C)O5)n[nH]c3n2)c1F (stereo not drawn) [Example 3, 5-[6-(2,6-Difluoro-3,5-dimethoxyphenyl)-1H-pyrazolo[3,4-d]pyrimidin-3-yl]-N,N-dimethyl-2,3-dihydro-1-benzofuran-2-carboxamide]
14 | < 100 nM | < 100 nM | < 100 nM | COc1cc(OC)c(Cl)c(-c2ncc3c(-c4ccc5c(c4)CN([C@H]4CC[C@H](O)CC4)C5=O)n[nH]c3n2)c1Cl [Example 23, 5-[6-(2,6-Dichloro-3,5-dimethoxyphenyl)-1H-pyrazolo[3,4-d]pyrimidin-3-yl]-2-(trans-4-hydroxycyclohexyl)isoindolin-1-one]
15 | < 100 nM | < 100 nM | < 100 nM | COc1cc(OC)c(Cl)c(-c2cc3[nH]nc(-c4cnn(CC(=O)N5CCC(O)C5)c4)c3cn2)c1Cl (stereo not drawn) [Example 43, 1-({4-[6-(2,6-Dichloro-3,5-dimethoxyphenyl)-1H-pyrazolo[4,3-c]pyridin-3-yl]-1H-pyrazol-1-yl}acetyl)pyrrolidin-3-ol]
16 | < 100 nM | 100 to 500 nM | < 100 nM | COc1cc(OC)c(Cl)c(-c2cc3[nH]nc(-c4ccc5c(c4)N(C)C(=O)CO5)c3cn2)c1Cl [Example 31, 6-[6-(2,6-Dichloro-3,5-dimethoxyphenyl)-1H-pyrazolo[4,3-c]pyridin-3-yl]-4-methyl-2H-1,4-benzoxazin-3(4H)-one]
17 | < 100 nM | < 100 nM | < 100 nM | COc1cc(OC)c(Cl)c(-c2cc3[nH]nc(-c4cnn(CC(=O)NC5CCN(C)CC5)c4)c3cn2)c1Cl [Example 42, 2-{4-[6-(2,6-Dichloro-3,5-dimethoxyphenyl)-1H-pyrazolo[4,3-c]pyridin-3-yl]-1H-pyrazol-1-yl}-N-(1-methylpiperidin-4-yl)acetamide]
18 | < 100 nM | < 100 nM | < 100 nM | COc1cc(OC)c(F)c(-c2ncc3c(-c4ccc5c(c4)CC(C(=O)N(C)C)O5)n[nH]c3n2)c1F (single isomer, unassigned) [Example 4, 5-[6-(2,6-Difluoro-3,5-dimethoxyphenyl)-1H-pyrazolo[3,4-d]pyrimidin-3-yl]-N,N-dimethyl-2,3-dihydro-1-benzofuran-2-carboxamide]
19 | < 100 nM | < 100 nM | < 100 nM | COc1cc(OC)c(F)c(-c2ncc3c(-c4ccc5c(c4)CN(S(C)(=O)=O)CC5)n[nH]c3n2)c1F [Example 85, 7-[6-(2,6-Difluoro-3,5-dimethoxyphenyl)-1H-pyrazolo[3,4-d]pyrimidin-3-yl]-2-(methylsulfonyl)-1,2,3,4-tetrahydroisoquinoline]
20 | < 100 nM | < 100 nM | < 100 nM | COc1cc(OC)c(Cl)c(-c2cc3[nH]nc(-c4cnn(CC(=O)N5CC[C@H](F)C5)c4)c3cn2)c1Cl [Example 48, 6-(2,6-Dichloro-3,5-dimethoxyphenyl)-3-(1-{2-[(3S)-3-fluoropyrrolidin-1-yl]-2-oxoethyl}-1H-pyrazol-4-yl)-1H-pyrazolo[4,3-c]pyridine]
